Measurements reported in US20100266503A1, “Breast Cancer Methods, Medicaments and Agents” (priority 2007, published 2010).

Assays:
[1] = system: notch intracellular domain in MCF-7 cells; assay: Staining for notch intracellular domain expression (surrogate marker for GS activity); format: cell-based; details: 48 hours; Gefitinib 15 μM, U0126 10 μM, PD98059 10 μM
Text: (§1) (A) GS activity as measured by a fluorescent assay in MCF7 breast cancer cell lines and MCF10A normal cell lines, with and without treatment with the ERK1/2 inhibitor U0126. (B) Sections of MCF7 breast cancer cell lines stained for notch intracellular domain expression (as a surrogate marker for GS activity). Shown are sections of cells untreated (NO), and cells treated with oestrogen (E2), faslodex (FAS), Gefitinib (Gef), GSI1, and the ERK1/2 inhibitors U0126 (U) and. PD98059 (PD). (C) Sections of MCF10A normal cell lines stained for notch intracellular domain expression. Shown are sections of cells untreated (NO), and cells treated with Gefitinib (Gef) and PD98059 (PD).
(§2) Cancer and normal cell lines were treated with oestrogen (E2), faslodex (FAS), Gefitinib (Gef 15 μM), GSI1, and the ERK1/2 inhibitors U0126 (U) (10 μM) and PD98059 (PD) (10 μM) for 48 hours and a fluorescent assay performed to measure GS activity. The figures show relative fluorescence therefore the amount of fluorescence in the treated cells relative to the untreated minus background (these figures are corrected for background).

[2] = system: GS Activity in MDA-MB 231 cell line; details: 48 h vs vehicle control
Experimental: GS Activity Assay was performed on MDA-MB 231 cell line. Cells were treated with a vehicle control and a U0126 inhibitor for 48 h.

[3] = system: GS activity in MCF7 breast cancer cell lines
Text: as §1, §2

[4] = system: GS activity in MCF10A normal cell lines; details: 10 μM, 48 hours
Text: as §1, §2

C[C@]12CC[C@@H]3c4ccc(O)cc4C[C@@H](CCCCCCCCC[S+]([O-])CCCC(F)(F)C(F)(F)F)[C@H]3[C@@H]1CC[C@@H]2O (some centres unmarked) [Faslodex]
notch intracellular domain expression localized to the nucleus compared to untreated cells [1]: all but the Faslodex appear to increase notch intracellular domain expression

COc1cc2ncnc(Nc3ccc(F)c(Cl)c3)c2cc1OCCCN1CCOCC1 [Gefitinib]
notch intracellular domain expression localized to the nucleus compared to untreated cells [1]: appear to increase notch intracellular domain expression localized to the nucleus

COc1cccc(-c2cc(=O)c3ccccc3o2)c1N [PD98059]
notch intracellular domain expression localized to the nucleus compared to untreated cells [1]: appear to increase notch intracellular domain expression localized to the nucleus

N#CC(=C(/N)Sc1ccccc1N)/C(C#N)=C(\N)Sc1ccccc1N [U0126]
notch intracellular domain expression localized to the nucleus compared to untreated cells [1]: appear to increase notch intracellular domain expression localized to the nucleus | GS Activity [2]: dose dependant increase of GS Activity | increase in GS activity (relative fluorescence vs untreated) ([3]; 10 μM, 48 hours): 6-12 fold | increase in GS activity ([3]; breast cancer cells, summary statement): 9 fold | increase in GS activity (relative fluorescence vs untreated) [4]: approximately 4 fold
